We go through 3 compounds from US10179138B2, “Pharmaceutical composition comprising 7β-hydroxycholesterol intravenous administration” (Immunopharm AG, priority 2016, dated 2019).

Read-outs that look alike come from different tables or passages of the source.

The format of series [1] is physicochemical. The following applies: for decomposition of 7β-hydroxycholesterol after sterilization: sterilization at 120° C. As for the experimental part:
The solution has been stored in glass vials.
A readily prepared infusion solution (on the basis of physiological saline solution) has been stored at room temperature (<25° C.) for 3 months.

The format of series [2] is physicochemical. An excerpt:
However, if you want to dilute the solution of 7β-hydroxycholesterol/solvent in an aqueous liquid, e.g. for the provision of an infusion solution, the substance flocculates. Thus, the inventors use a solubilizing agent in order to maintain 7β-hydroxycholesterol in the later infusion solution in solution.

For series [3] the following is noted: cited from earlier work.
The test system of series [4] is human cell lines of colon carcinoma. The following applies: cited from earlier work.
The conditions of series [5]: cited from earlier work; for behaviour in aqueous solution over time: after several hours.
The mark [6] stands for this setting: readily prepared infusion solution (physiological saline), room temperature (<25° C.), 3 months.

Turning to `CC(C)CCC[C@@H](C)[C@H]1CC[C@H]2[C@@H]3[C@@H](O)C=C4C[C@@H](O)CC[C@]4(C)[C@H]3CC[C@]12C` [7β-hydroxycholesterol], the “decomposition of 7β-hydroxycholesterol on storage” value in series [1] (concentrate stored at 40° C. for 3 months in glass vials) is listed as “did not show a decomposition”. For the same compound, the “decomposition of 7β-hydroxycholesterol after sterilization” value in series [1] (concentrate) is listed as “remained stable”. In addition, the “decomposition of 7β-hydroxycholesterol after sterilization” value in series [1] (readily prepared infusion solution (physiological saline solution)) was “remained stable”. Besides, in series [1] (setting [6]), the “appearance / flocculation of solution on storage” value is listed as “remained clear, there was no flocculation” and the “decrease of content of 7β-hydroxycholesterol by HPLC after storage” value is on record as “could not be determined”. In addition, in series [2], the “behaviour on dilution of solvent solution in aqueous liquid” value is on record as “flocculates”, the “solubility in water soluble organic solvent” value is reported as “excellent solubility” and the “stability of solution in water soluble organic solvent” value was “remain stable for years”. In addition, the solubility in water result in series [3] was “insoluble in water”.
In the case of `CC(C)CCC[C@@H](C)[C@H]1CC[C@H]2[C@@H]3[C@@H](OC(=O)CCC(=O)[O-])C=C4C[C@@H](OC(=O)CCC(=O)[O-])CC[C@]4(C)[C@H]3CC[C@]12C.[Na+].[Na+]` [7β-hydroxycholesteryl-bishemisuccinate-disodium], in series [4], the induction of apoptosis result was “induction of apoptosis”. In addition, in series [5], the “behaviour in aqueous solution over time” value was “starts to decompose and to flocculate”; the “stability in aqueous solution” value is “instable”; the water solubility entry is reported as “water soluble”.
As to “hydroxycholesteryl-bishemisuccinate-diethanolamine”, in series [4], the induction of apoptosis result is recorded as “induction of apoptosis”. Also, in series [5], the “behaviour in aqueous solution over time” value was “starts to decompose and to flocculate”; the “stability in aqueous solution” value is “instable”.
